Measured values taken from ChEMBL document CHEMBL4342461, “Schwarzinicines A-G, 1,4-Diarylbutanoid-Phenethylamine Conjugates from the Leaves of Ficus schwarzii” (J Nat Prod, 2020).

Columns and labels:
[1] = test system: Aorta; test: Vasorelaxant activity in Sprague-Dawley rat aortic rings assessed as reduction in phenylephrine-induced contractions; format: functional, tissue-based
[2] = test system: Aorta; test: Vasorelaxant activity in Sprague-Dawley rat aortic rings assessed as reduction in phenylephrine-induced contractions by measuring maximum relaxation magnitude relative to control; format: functional
[3] = test system: HCT-116; test: Cytotoxicity against human HCT116 cells after 72 hrs by neutral red uptake assay; format: cell-based; conditions: HCT-116, 72 h
[4] = test system: MCF7; test: Cytotoxicity against human MCF7 cells after 72 hrs by neutral red uptake assay; format: cell-based; conditions: MCF7, 72 h
[5] = test system: A549; test: Cytotoxicity against human A549 cells after 72 hrs by neutral red uptake assay; format: cell-based; conditions: A549, 72 h

| Compound | EC50 [1] | Emax [2] | Activity [1] | IC50 [3] | IC50 [4] | IC50 [5] |
| --- | --- | --- | --- | --- | --- | --- |
| CC(CCc1ccc(O)cc1)NCCc1ccc(O)c(O)c1 (stereo not drawn) [DOBUTAMINE] | 2.5 µM | 92% | – | – | – | – |
| COc1ccc(CCNC(CCc2ccc(OC)c(OC)c2)Cc2ccc(OC)c(OC)c2)cc1OC (stereo not drawn) | 2.01 µM | 119% | Dose-dependent effect | > 10 µM | > 10 µM | > 10 µM |
| CC[C@]1(O)C[C@@H]2CN(CCc3c([nH]c4ccccc34)[C@@](C(=O)OC)(c3cc4c(cc3OC)N(C)[C@H]3[C@@](O)(C(=O)OC)[C@H](OC(C)=O)[C@]5(CC)C=CCN6CC[C@]43[C@@H]65)C2)C1 [VINBLASTINE] | – | – | – | 0.0005 µM | 0.001 µM | 0.01 µM |
| COc1ccc(CCC(Cc2ccc(OC)c(OC)c2)N(C)CCc2ccc(OC)c(OC)c2)cc1OC (stereo not drawn) | 0.96 µM | 106% | Dose-dependent effect | > 10 µM | > 10 µM | > 10 µM |

Further lines, with some results ahead:

| EC50 [1] | Compound | Emax [2] | Activity [1] | IC50 [3] | IC50 [4] | IC50 [5] |
| --- | --- | --- | --- | --- | --- | --- |
| 2.1 µM | COc1ccc(CCC(Cc2ccc(OC)c(OC)c2)NCCc2cc(OC)c3c(c2)OCO3)cc1OC (stereo not drawn) | 116% | Dose-dependent effect | – | – | – |
| 1.88 µM | COc1ccc(CCC(Cc2ccc(OC)c(OC)c2)NCCc2ccc3c(c2)OCO3)cc1OC (stereo not drawn) | 120% | Dose-dependent effect | – | – | – |
